How the values were obtained:
Assay type in all cases: cell-based
hSTING R232 [1] = molecular target: T1, hSTING R232 (Homo sapiens, UniProt Q86WV6, H232R); assay: 293T-Dual hSTING R232 cells, IRF activation (Quanti-Blue); conditions: 293T-Dual hSTING R232 cell line, 24 h, OD 620 nm
T1 construct: host or cells: 293T-Dual hSTING R232 cells
Method: (§1) A test compound with a serial of dilution was prepared in complete medium, and 50 μL of the compound were added to the corresponding well, and incubated with the cells at 37° C. incubator for 24 hr.
To determine the effect on interferon regulatory factor (IRF) activation, 20 μL of cell culture supernatant was transferred into a fresh 96-well plate, 150 μL of Quanti-Blue was added to each well and incubated at 37° C. for 25 min. OD at 620 nm was recorded, and EC50 was calculated with 4 parameter logistic equation.

Human STING [2] = molecular target: T2, Human STING (Homo sapiens, UniProt Q86WV6, G230A/H232R/R293Q/R71H); assay: EC50 in THP1-Dual cells, IRF3 reporter (QUANTI-Luc); conditions: THP1 cell line, 24 h
T2 construct: host or cells: THP1-Dual cells (human monocytic reporter line)
T2 sequence (Q86WV6 whole entry R71H/G230A/H232R/R293Q): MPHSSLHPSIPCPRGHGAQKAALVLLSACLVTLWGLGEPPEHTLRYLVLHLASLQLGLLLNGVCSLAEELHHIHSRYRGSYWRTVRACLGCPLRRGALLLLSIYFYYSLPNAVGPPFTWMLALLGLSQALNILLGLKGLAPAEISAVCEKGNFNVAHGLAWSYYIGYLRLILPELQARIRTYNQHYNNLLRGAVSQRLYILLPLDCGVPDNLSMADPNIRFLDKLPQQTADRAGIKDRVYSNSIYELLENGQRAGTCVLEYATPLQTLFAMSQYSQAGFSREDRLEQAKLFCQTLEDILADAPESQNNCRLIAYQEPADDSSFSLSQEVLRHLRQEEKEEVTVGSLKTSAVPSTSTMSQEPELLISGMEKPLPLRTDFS
Method: (§2) THP1-Dual cells (obtained from Invivogen) are maintained in RPM11640 medium with 100 µg/ml of Zeocin and 10 µg/ml of blasticidin at 37° C., 5% CO2, compounds were dissolved in sterile PBS (pH7.4) as 20 mM, 0.5×10^6 cells/ml of THP-1 Dual cells were incubated with indicated concentrations of a compound for 24 hours at 37° C., 5% CO2 incubator. QUANTI-Luc and QUANTI-Blue were prepared and used following the manufacturer's instructions. 10 ul of cell culture supernatant were mixed with QUANTI-Luc and immediately measured using Luminometer; 20 ul of supernatant were mixed with QUANTI-Blue, and incubated at 37° C. for 30 minutes, and read at OD620. EC50 was calculated using Prism with 4-parameter dose-response curve fitting (Table 3).

Human STING [3] = molecular target: T2, Human STING; assay: EC50 in THP1-Dual cells, NF-kB reporter (QUANTI-Blue); conditions: THP1 cell line, 24 h, OD620, read-out: ECs50 NF-kB
Method: as §2

hSTING R232 [4] = molecular target: T1, hSTING R232; assay: 293T-Dual hSTING R232 cells, interferon-β expression (Quanti-Luc); conditions: 293T-Dual hSTING R232 cell line, 24 h, read-out: IFNb EC50
Method: as §1
To evaluate the effect on interferon-β expression, 20 μL of cell culture supernatant were transferred into a fresh 96-half area-well white plate, 30 μL of Quanti-Luc were added to each well, and luminescence was measured immediately with a luminometer. Four parameter logistic equation was used to calculate EC50 (Table 4).

Human STING [5] = molecular target: T2, Human STING; assay: THP1-Dual cell assay, IRF pathway reporter luminescence readout (QUANTI-Luc); conditions: THP1-Dual cells, 24 h, 30 μM, Table 2
Method: STING pathway activation by the compounds described herein was measured using THP-1 dual cells. These cells are THP1 monocytes that have been modified to be reporters for the IRF pathway, which is activated by STING agonists in these cells.
THP1-Dual cells (obtained from Invivogen) are maintained in growth medium with 100 ug/ml of Zeocin and 10 ug/ml of blasticidin at 37° C., 5% CO2, the cells were passaged every 3 days by inoculating 7×10^5 cells per ml and centrifuged at 1000 rpm for 5 min. Supernatant was removed and THP-1 Dual cells were re-suspended at 5×10^5 cells/ml in fresh pre-warmed growth medium.
[…]. 50 ul of Cell suspension (about 2.5×10^4 cells per well) was added in 384-well plate, which was incubated for 24 hours at 37° C., 5% CO2. QUANTI-Luc was prepared and used following the manufacturer's instructions, 5×10^3 cells per well were seeded in 40 μl medium and incubated overnight. Luminometer was set with the following parameters: 50u of injection, end-point measurement with a 4 second start time and 0.1 second reading time. 10 ul of THP-1 Dual cell culture medium per well was added into a 96-well white (opaque) plate, luminescence was measured and calculated.

T1 sequence (Q86WV6 whole entry H232R): as the sequence (Q86WV6 whole entry R71H/G230A/H232R/R293Q) above, with H71R, A230G, Q293R counted along it

EC50 (hSTING R232 [1]) [µM] | EC50 (Human STING [2]) [µM] | EC50 (Human STING [3]) [µM] | EC50 (hSTING R232 [4]) [µM] | Structure (SMILES) | Readout Average (Human STING [5]) | Readout n = 1 (Human STING [5]) | Readout n = 2 (Human STING [5])
11.8 | 28.2 | > 100 | 37.5 | BP1(=O)OC[C@H]2O[C@@H](n3cnc4c(=O)[nH]c(N)nc43)[C@H](F)[C@@H]2OP(=O)(S)OCC2O[C@@H](n3cnc4c(N)ncnc43)[C@H](F)[C@@H]2O1 (single isomer, unassigned) [Compound B1] | – | – | –
9.82 | 14.7 | 74.6 | 29.1 | BP1(=O)OC[C@H]2O[C@@H](n3cnc4c(=O)[nH]c(N)nc43)[C@H](F)[C@@H]2OP(=O)(S)OCC2O[C@@H](n3cnc4c(N)ncnc43)[C@H](F)[C@@H]2O1 (single isomer, unassigned) [Compound B2] | – | – | –
0.32 | 0.91 | 5.22 | 2.97 | BP1(=O)OC[C@H]2O[C@@H](n3cnc4c(=O)[nH]c(N)nc43)[C@H](F)[C@@H]2OP(=O)(S)OCC2O[C@@H](n3cnc4c(N)ncnc43)[C@H](F)[C@@H]2O1 (single isomer, unassigned) [Compound B3] | – | – | –
0.34 | 0.61 | 7.61 | 2.27 | BP1(=O)OC[C@H]2O[C@@H](n3cnc4c(=O)[nH]c(N)nc43)[C@H](F)[C@@H]2OP(=O)(S)OCC2O[C@@H](n3cnc4c(N)ncnc43)[C@H](F)[C@@H]2O1 (single isomer, unassigned) [Compound B4] | – | – | –
34.3 | 88.4 | 67.1 | 75 | BP1(=O)OCC2O[C@@H](n3cnc4c(N)ncnc43)[C@H](F)[C@@H]2OP(=O)(S)OC[C@H]2O[C@@H](n3cnc4c(=O)[nH]c(N)nc43)[C@H](F)[C@@H]2O1 (single isomer, unassigned) [Compound C1] | – | – | –
0.23 | 0.43 | 4.93 | 0.43 | BP1(=O)OCC2O[C@@H](n3cnc4c(N)ncnc43)[C@H](F)[C@@H]2OP(=O)(S)OC[C@H]2O[C@@H](n3cnc4c(=O)[nH]c(N)nc43)[C@H](F)[C@@H]2O1 (single isomer, unassigned) [Compound C2] | – | – | –
0.085 | 0.37 | 4.56 | 0.16 | BP1(=O)OCC2O[C@@H](n3cnc4c(N)ncnc43)[C@H](F)[C@@H]2OP(=O)(S)OC[C@H]2O[C@@H](n3cnc4c(=O)[nH]c(N)nc43)[C@H](F)[C@@H]2O1 (single isomer, unassigned) [Compound C3] | – | – | –
0.34 | 0.63 | 6.29 | 0.7 | BP1(=O)OCC2O[C@@H](n3cnc4c(N)ncnc43)[C@H](F)[C@@H]2OP(=O)(S)OC[C@H]2O[C@@H](n3cnc4c(=O)[nH]c(N)nc43)[C@H](F)[C@@H]2O1 (single isomer, unassigned) [Compound C4] | – | – | –
– | – | – | – | BP1(=O)OC[C@H]2O[C@@H](n3cnc4c(NCc5ccccc5)ncnc43)[C@H](OP(=O)(S)OC[C@H]3O[C@@H](n4cnc5c(NCc6ccccc6)ncnc54)[C@H](O)[C@@H]3O1)[C@@H]2O (single isomer, unassigned) [Compound D1] | 22040 | 22420 | 21660
– | – | – | – | BP1(=O)OC[C@H]2O[C@@H](n3cnc4c(NCc5ccccc5)ncnc43)[C@H](OP(=O)(S)OC[C@H]3O[C@@H](n4cnc5c(NCc6ccccc6)ncnc54)[C@H](O)[C@@H]3O1)[C@@H]2O (single isomer, unassigned) [Compound D2] | 23960 | 18350 | 29570
0.72 | 0.91 | 7.47 | 2.3 | [BH3-][P+]1(O)OCC2OC(n3cnc4c(N)ncnc43)C(OP(=O)(O)OCC3OC(n4cnc5c(N)ncnc54)C(F)C3O1)C2F (single isomer, unassigned) [Compound K1] | – | – | –
15 | 23 | 72.6 | 33 | [BH3-][P+]1(O)OCC2OC(n3cnc4c(N)ncnc43)C(OP(=O)(O)OCC3OC(n4cnc5c(N)ncnc54)C(F)C3O1)C2F (single isomer, unassigned) [Compound K2] | – | – | –
0.63 | 1.16 | 6.59 | 2.44 | BP1(=O)OCC2O[C@@H](n3cnc4c(N)ncnc43)[C@H](F)[C@@H]2OP(=O)(O)OC[C@H]2O[C@@H](n3cnc4c(=O)[nH]c(N)nc43)[C@H](F)[C@@H]2O1 (stereo partly drawn) [Compound F1, ((2R,3R,3aR,5R,7aS,9R,10R,10aR,14aR)-2-(2-amino-6-oxo-1,6-dihydro-9H-purin-9-yl)-9-(6-amino-9H-purin-9-yl)-3,10-difluoro-12-hydroxy-5,12-dioxidooctahydro-2H,7H-difuro[3,2-d:3′,2′-j][1,3,7,9]tetraoxa[2,8]diphosphacyclododecin-5-yl)trihydroborate] | – | – | –
1.2 | 1.56 | 10 | 2.78 | BP1(=O)OCC2O[C@@H](n3cnc4c(N)ncnc43)[C@H](F)[C@@H]2OP(=O)(O)OC[C@H]2O[C@@H](n3cnc4c(=O)[nH]c(N)nc43)[C@H](F)[C@@H]2O1 (stereo partly drawn) [Compound F2, ((2R,3R,3aR,5R,7aS,9R,10R,10aR,14aR)-2-(2-amino-6-oxo-1,6-dihydro-9H-purin-9-yl)-9-(6-amino-9H-purin-9-yl)-3,10-difluoro-12-hydroxy-5,12-dioxidooctahydro-2H,7H-difuro[3,2-d:3′,2′-j][1,3,7,9]tetraoxa[2,8]diphosphacyclododecin-5-yl)trihydroborate] | – | – | –
0.41 | 0.63 | 4.3 | 0.92 | BP1(=O)OC[C@H]2O[C@@H](n3cnc4c(=O)[nH]c(N)nc43)[C@H](F)[C@@H]2OP(=O)(O)OCC2O[C@@H](n3cnc4c(N)ncnc43)[C@H](F)[C@@H]2O1 (stereo partly drawn) [Compound G1, ((2R,3R,3aR,5R,7aR,9R,10R,10aR,14aS)-9-(2-amino-6-oxo-1,6-dihydro-9H-purin-9-yl)-2-(6-amino-9H-purin-9-yl)-3,10-difluoro-12-hydroxy-5,12-dioxidooctahydro-2H,7H-difuro[3,2-d:3′,2′-j][1,3,7,9]tetraoxa[2,8]diphosphacyclododecin-5-yl)trihydroborate] | – | – | –
0.94 | 1.08 | 8.52 | 1.77 | BP1(=O)OC[C@H]2O[C@@H](n3cnc4c(=O)[nH]c(N)nc43)[C@H](F)[C@@H]2OP(=O)(O)OCC2O[C@@H](n3cnc4c(N)ncnc43)[C@H](F)[C@@H]2O1 (stereo partly drawn) [Compound G2, ((2R,3R,3aR,5R,7aR,9R,10R,10aR,14aS)-9-(2-amino-6-oxo-1,6-dihydro-9H-purin-9-yl)-2-(6-amino-9H-purin-9-yl)-3,10-difluoro-12-hydroxy-5,12-dioxidooctahydro-2H,7H-difuro[3,2-d:3′,2′-j][1,3,7,9]tetraoxa[2,8]diphosphacyclododecin-5-yl)trihydroborate] | – | – | –
9.68 | 13.9 | 29 | 12.8 | B[P@]1(=O)OC[C@H]2O[C@@H](n3cnc4c(N)ncnc43)[C@H](F)[C@@H]2OP(=O)(O)OC[C@H]2O[C@@H](n3cnc4c(N)ncnc43)[C@H](O1)C2F (some centres unmarked) [Compound I1] | – | – | –
5.43 | 6.27 | 34.7 | 11.2 | B[P@]1(=O)OC[C@H]2O[C@@H](n3cnc4c(N)ncnc43)[C@H](F)[C@@H]2OP(=O)(O)OC[C@H]2O[C@@H](n3cnc4c(N)ncnc43)[C@H](O1)C2F (some centres unmarked) [Compound I2] | – | – | –
33.6 | > 100 | > 100 | 84.4 | BP1(=O)OC[C@H]2O[C@@H](n3cnc4c(N)ncnc43)[C@H](F)[C@@H]2OP(=O)(S)OC[C@H]2O[C@@H](n3cnc4c(N)ncnc43)[C@H](O1)C2F (some centres unmarked) [Mixtures of H1, H2, H3, and H4] | – | – | –
